The values that follow come from patent US5648366A, “Substituted pyrrolidin-3-yl-alkyl-piperidines” (Merrell Pharmaceuticals Inc., priority 1995, dated 1997).

Where a name gives a salt, the structure may show the parent alone.

One experiment deals with NK1 and NK2 receptors. In words: Antagonism of capsaicin aerosol induced respiratory effects in conscious guinea pigs. The conditions noted are these: for SRE NUMBER (coughs/gasps): 19 min capsaicin exposure; for SRE NUMBER (coughs/gasps) / DYSPNEA ONSET / MAXIMUM PRESSURE INCREASE: mean and SEM; for DYSPNEA INCIDENCE / DYSPNEA ONSET / MAXIMUM PRESSURE INCREASE: capsaicin aerosol 0.001%; for antagonism of effects of capsaicin aerosol (in words): administered orally; for inhibition of endogenous tachykinins released by capsaicin aerosol (in words): guinea pig, in vivo. It counts as in vivo, guinea pig. As to the method: (§1) ANTAGONISM OF NKA AND CAPSAICIN INDUCED R[…] IN CONSCIOUS GUINEA PIGS
(§2) In vivo experiments were performed using male Duncan Hartley guinea pigs (250-350 g). Changes in conscious breathing patterns were monitored in four animals simultaneously using modified whole body plethysmography consisting of four small plexiglass boxes each connected to a reference box via Validyne DP 45-16 differential pressure transducers. The 4 boxes were equipped with an air supply line (also used for aerosol delivery) and an exhaust air line. Supply and exhaust lines were of the same length and narrow bore and arose from a common supply chamber and vented to a common exhaust chamber. This system was used to ensure that fluctuations in supply air and atmospheric pressure would remain in phase and be eliminated from the net signal by the differential pressure transducers. The analog pressure signals were digitalized via a Data Translation DT2821 A to D board. Data were collected at a rate of 100 samples/second/animal. Each cycle of pressure change was analyzed using the following parameters: rising and falling slope determined between minimum and maximum pressures, the ratio of rising over falling slope, and the magnitude of the change between initial trough pressure and peak cycle pressure. Using these values (and observing the animals) the pressure cycles were characterized into normal breaths, forced exhalations (apparent by abdominal heaving), significant respiratory events (SREs; usually coughs, less often sneezes or gasps which were characterized by transient, extremely large pressure increases which were distinguishable from noise) and movement/noise with a PCAT 286 running a System V UNIX operating system. Dyspnea was defined as a significant, sustained increase in plethysmograph pressure which was associated with an observable shift to labored breathing in the animal.
(§3) During the course of a typical experiment in which airway responsiveness to various bronchoconstricting agents was examined, aerosols were delivered for 19 min (0.33 ml/min) using a DeVilbiss Ultraneb 99 ultrasonic nebulizer and animals monitored during this time. Prior to nebulization, 1 min of resting breathing was collected to establish a baseline pressure. […] The vehicle for nebulization of all bronchoconstrictive agents was phosphate buffered saline (pH 7.4) which elicited no r[…] itself. Putative tachykinin antagonists were administered either (i.v.) 20 min prior to onset of aerosol exposure or orally 1 hour prior to onset (to guinea pigs after an overnight fast).
Capsaicin aerosol is known to promote release of the tachykinins SP and NKA from sensory nerves in the airways of guinea pigs which may then act upon NK1 and NK2 receptors, respectively to elicit r[…]. The ability of the compounds of Example 3A; and Example 20A to attenuate capsaicin-induced r[…], shown in Table 7a, is inferred from their ability to reduce incidence of dyspnea, prolong the onset of the response and reduce the number of coughs/gasps which occur during aerosol exposure.

In a further experiment the target is T1, NK1 receptor (Homo sapiens, UniProt P25103).
T1 construct: endogenous in cells; host or cells: UC11 cells
Kind of experiment: Antagonism of NK1 receptor mediated (SP-induced) phosphatidylinositol turnover in UC11 cells. It counts as cell-based. To be noted: UC11 cells, SP; for NK-1 RECEPTOR -SLOPE: Schild analysis; for NK-1 RECEPTOR pA2: Schild analysis of 2-3 experiments, 95% confidence limits on next line. As to the method: (§4) ANTAGONISM OF NK1 AND NK2 RECEPTOR MEDIATED PHOSPHATID[…]
(§5) Tachykinin-mediated inositol phosphate accumulation was measured in UC11 or SKLKB82#3 cells in the presence and absence of NK1 or NK2 receptor antagonists, respectively. Tissues were incubated in Krebs-Henseleit buffer at 37° C. with 95% O2 -5% CO2 gassing. Tissues were then incubated with fresh buffer containing 100 μCi of myo-[2-^3 H(N)] inositol at 37° C. for 60 min with gentle gassing. After washing twice in 5 ml room temperature buffer containing 10 mM LiCl, tissues were incubated for 30 min at room temperature with a buffer change at 15 min. Buffer was removed and Krebs-Henseleit buffer (containing 40 μg/ml bacitracin, 4 μg/ml each of leupeptin and chymostatin, 0.1% bovine serum albumin and 10 mM each of thiorphan and LiCl) added. After 15 min, SP was added to UC11 cells or NKA to SKLKB82#3 cells at various concentrations to start the reaction. After incubation for 60 min at room temperature the reaction was terminated by addition of 930 μl chloroform: methanol (1:2 by volume) to each tube, followed by 310 μl chloroform and 310 μl doubly distilled water. Samples were vortexed, centrifuged, and 0.9 ml of the aqueous (top) phase removed and added to 2 ml ddH2 O. The mixture was vortexed and loaded onto a 50% Bio-Rad AG 1-X8 (formate form, 100-200 mesh) exchange column (Bio-Rad Laboratories, Hercules, Calif.). The columns were washed, in order, with: 1) 10 ml doubly distilled water, 2) 5 ml of 5 mM disodium tetraborate/60 mM sodium formate, and 3) 5 ml of 1M ammonium formate/0.1M formic acid. The third elution was collected and 1 ml counted in 7 ml scintillation fluid. A 50 μl aliquot of the organic (bottom) phase was removed, dried in a scintillation vial and counted in 7 ml scintillation fluid.
(§6) The ratio of DPM in the aqueous phase aliquot (total inositol phosphates) to the DPM in the 50 μl organic phase aliquot (total [^3 H]inositol incorporated) was calculated for each sample. Data are expressed as a percent of agonist-induced accumulation of [^3 H]-inositol phosphates over basal levels. The ratios in the presence of test compound and/or standards were compared to the ratios for control samples (i.e. no stimulating agonist). Dose-response graphs were constructed and the abilities of the test compounds to inhibit tachykinin-induced phosphatidyinositol turnover determined with the aid of a computer program. […] Data is expressed as percent stimulation of total inositol phosphate accumulation over basal levels and normalized to the maximum response produced by SP. […] Schild analysis is performed using dose response curves (such as those presented in FIGS. 1a and 1b) to obtain a value indicative of the strength of a competitive antagonist and is expressed as the pA2, which is the negative logarithm of the molar concentration of antagonist which reduces the effect of a dose of agonist to one-half of that expected at the dose of agonist.

Experiment [1] concerns the target T2, NK2 receptor (Bos taurus, UniProt P05363).
T2 construct: expressed in transfected cells; host or cells: SKLKB82#3 cells (murine B82 fibroblasts by own knowledge)
T2 sequence (P05363 1-384): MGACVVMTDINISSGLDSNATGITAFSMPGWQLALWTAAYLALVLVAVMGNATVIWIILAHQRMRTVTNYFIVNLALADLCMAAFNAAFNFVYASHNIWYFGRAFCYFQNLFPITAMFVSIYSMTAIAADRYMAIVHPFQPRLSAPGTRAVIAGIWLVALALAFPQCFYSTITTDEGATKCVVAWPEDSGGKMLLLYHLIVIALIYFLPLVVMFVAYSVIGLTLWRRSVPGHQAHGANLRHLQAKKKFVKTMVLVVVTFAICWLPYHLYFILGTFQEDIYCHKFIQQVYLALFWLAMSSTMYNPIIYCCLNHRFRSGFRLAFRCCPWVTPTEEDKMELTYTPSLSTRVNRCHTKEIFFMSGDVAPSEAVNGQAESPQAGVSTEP
Kind of experiment: Antagonism of NK2 receptor mediated (NKA-induced) phosphatidylinositol turnover in SKLKB82#3 cells. To be noted: SKLKB82#3 cells, NKA; for NK-2 RECEPTOR -SLOPE: Schild analysis; for NK-2 RECEPTOR pA2: Schild analysis of 2-3 experiments, 95% confidence limits on next line. It counts as cell-based. As to the method: as §4, §5, §6

The subject of experiment [2] is NK2 receptor. Kind of experiment: Antagonism of NKA aerosol induced respiratory effects in conscious guinea pigs. The conditions noted are these: 20 min prior to NKA aerosol (0.05%); for DYSPNEA ONSET: mean and SEM. It counts as in vivo, guinea pig. The method, then: as §1, §2, §3
Table 6 illustrates the effects of the compounds of Example 3; Example 20A; and Example 5A on r[…] induced by NKA aerosol. […] These effects were dose dependent i.e. the higher the dose of compound, the greater attenuation of NKA-mediated effects.

[3] abbreviates: 25 mg/kg oral gavage 1 hr prior.
Setting [4] is: 50 mg/kg oral gavage 1 hr prior.
Where [5] appears, read: 100 mg/kg oral gavage 1 hr prior.

T1 sequence (P25103 whole entry): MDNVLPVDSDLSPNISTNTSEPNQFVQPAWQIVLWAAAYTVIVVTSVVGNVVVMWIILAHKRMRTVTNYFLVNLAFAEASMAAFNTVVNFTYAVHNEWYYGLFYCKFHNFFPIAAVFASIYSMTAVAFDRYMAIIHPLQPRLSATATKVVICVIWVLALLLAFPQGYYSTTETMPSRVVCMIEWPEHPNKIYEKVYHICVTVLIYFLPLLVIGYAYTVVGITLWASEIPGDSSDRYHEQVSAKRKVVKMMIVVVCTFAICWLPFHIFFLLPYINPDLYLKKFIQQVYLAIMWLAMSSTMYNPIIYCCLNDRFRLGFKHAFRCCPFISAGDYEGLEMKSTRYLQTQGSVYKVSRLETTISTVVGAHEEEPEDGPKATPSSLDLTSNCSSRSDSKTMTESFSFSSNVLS

With `COc1cccc(OC)c1C(=O)N1CCC(CCN2CCC(C(N)=O)(c3ccccc3)CC2)(c2ccc(Cl)c(Cl)c2)C1` (stereo not drawn) [Example 5], in the experiment on NK1 and NK2 receptors (setting [3]), the “SRE NUMBER (coughs/gasps)” value is on record as 4.4 ± 1.2, the “DYSPNEA INCIDENCE” value was 66.7%, the “DYSPNEA ONSET” value turned out to be 253 ± 47 s and the “MAXIMUM PRESSURE INCREASE” value was determined as 0.7 ± 0.1 mmH2 O. Further, in the experiment on NK1 and NK2 receptors (setting [4]), the “SRE NUMBER (coughs/gasps)” value is 4.9 ± 1.9, the “DYSPNEA INCIDENCE” value is reported as 85.7%, the “DYSPNEA ONSET” value came out at 384 ± 85 s and the “MAXIMUM PRESSURE INCREASE” value was 0.5 ± 0.1 mmH2 O. Further, in the experiment with NK1 and NK2 receptors, the “antagonism of effects of capsaicin aerosol (in words)” value is “antagonize the effects of capsaicin aerosol when administered orally” and the “inhibition of endogenous tachykinins released by capsaicin aerosol (in words)” value was “inhibit the endogenous tachykinins released by capsaicin aerosol”.
Consider `COc1cccc(OC)c1C(=O)N1CCC(CCN2CCC(C(N)=O)(c3ccccc3)CC2)(c2ccc(Cl)c(Cl)c2)C1` (stereo not drawn) [Example 5A, 1-[2-[3-(3,4-dichloro-phenyl)-1-(2,6-dimethoxy-benzoyl)-pyrrolidin-3-yl]-ethyl]-4-phenyl-piperidine-4-carboxylic acid amide hydrochloride], for which, on NK1 receptor, the “NK-1 RECEPTOR -SLOPE” value was 1.17 and the “NK-1 RECEPTOR pA2” value was found to be 7.32. Moreover, at NK2 receptor [1], the “NK-2 RECEPTOR -SLOPE” value is recorded as 1.11 and the “NK-2 RECEPTOR pA2” value was 7.35. In the experiment on NK2 receptor [2] (5 mg/kg), the “DYSPNEA INCIDENCE” value came to 60% and the “DYSPNEA ONSET” value was found to be 654 ± 37 s. Further, in the experiment with NK2 receptor [2] (10 mg/kg), the “DYSPNEA INCIDENCE” value is listed as 54% and the “DYSPNEA ONSET” value was found to be 608 ± 65 s.
`COc1cc(C(=O)N2CCC(CCN3CCC(C(N)=O)(c4ccccc4)CC3)(c3ccc(Cl)c(Cl)c3)C2)cc(OC)c1OC` (single isomer, unassigned; (+)) [Example 20, (+)-1-[2-[3-(3,4-dichloro-phenyl)-1-(3,4,5-trimethoxy-benzoyl)-pyrrolidin-3-yl]-ethyl]-4-phenyl-piperidine-4-carboxylic acid amide]: on NK1 receptor, the “NK-1 RECEPTOR -SLOPE” value was 1.03. The “NK-2 RECEPTOR -SLOPE” value on NK2 receptor [1] amounted to 1.00.
Regarding `COc1cc(C(=O)N2CCC(CCN3CCC(C(N)=O)(c4ccccc4)CC3)(c3ccc(Cl)c(Cl)c3)C2)cc(OC)c1OC` (racemic) [Example 3A, 1-[2-[3-(3,4-dichloro-phenyl)-1-(3,4,5-trimethoxy-benzoy1)-pyrrolidin-3-yl]-ethyl]-4-phenyl-piperidine-4-carboxylic acid amide hydrochloride], on NK1 receptor, the “NK-1 RECEPTOR -SLOPE” value worked out at 0.90 and the “NK-1 RECEPTOR pA2” value is reported as 7.91. Further, at NK2 receptor [1], the “NK-2 RECEPTOR -SLOPE” value was found to be 0.73 and the “NK-2 RECEPTOR pA2” value came out at 8.75. Besides, in the experiment on NK1 and NK2 receptors (10 mg/kg intravenous), the “SRE NUMBER (coughs/gasps)” value is reported as 8.50 ± 1.9, the “DYSPNEA INCIDENCE” value is given as 89%, the “DYSPNEA ONSET” value was determined as 480 ± 80 s and the “MAXIMUM PRESSURE INCREASE” value stood at 0.83 ± 0.18 mmH2 O. Besides, in the experiment with NK1 and NK2 receptors (setting [3]), the “SRE NUMBER (coughs/gasps)” value is 4.6 ± 1.0, the “DYSPNEA INCIDENCE” value came to 80%, the “DYSPNEA ONSET” value was determined as 424 ± 120 s and the “MAXIMUM PRESSURE INCREASE” value is given as 0.7 ± 0.2 mmH2 O. In addition, in the experiment with NK1 and NK2 receptors (setting [4]), the “SRE NUMBER (coughs/gasps)” value was 2.8 ± 0.8, the “DYSPNEA INCIDENCE” value stood at 70%, the “DYSPNEA ONSET” value was 434 ± 152 s and the “MAXIMUM PRESSURE INCREASE” value is on record as 0.4 ± 0.1 mmH2 O. Moreover, in the experiment with NK1 and NK2 receptors (setting [5]), the “SRE NUMBER (coughs/gasps)” value is recorded as 2.1 ± 0.5, the “DYSPNEA INCIDENCE” value was 50%, the “DYSPNEA ONSET” value stood at 360 ± 120 s and the “MAXIMUM PRESSURE INCREASE” value was 0.4 ± 0.1 mmH2 O. In addition, in the experiment with NK1 and NK2 receptors, the “antagonism of effects of capsaicin aerosol (in words)” value is on record as “antagonize the effects of capsaicin aerosol when administered orally” and the “inhibition of endogenous tachykinins released by capsaicin aerosol (in words)” value is on record as “inhibit the endogenous tachykinins released by capsaicin aerosol”.
